Measured values from patent US8691812B2, “Pesticidal composition and its use” (Sumitomo Chemical Company, Limited, priority 2010, dated 2014).

Tested on: Rhizoctonia solani
Assay: Soybean seed treatment test in soil contaminated by Rhizoctonia solani (disease control efficacy)
Type: in vivo, Rhizoctonia solani on soybean (variety: Natto shoryu)
Conditions: carboxamide compound alone, 0.2 g/100 kg of seeds; soybean seed application; cultivated 20 days in soil contaminated by Rhizoctonia solani; efficacy vs non-treated plot
Procedure: A cyclohexanone solution (100microL) containing prescribed amount (weight) of a test compound was applied on seeds of soybean (variety : Natto shoryu) (10 g) by using a rotary apparatus for seed treatment (Seed dresser, manufactured by Hans-Ulrich Hege GmbH).
One day after the application, plastic pot was filled with soil contaminated by Rhizoctonia solani, and the seeds treated with the test compounds were seeded in the soil and cultivated in a glass-greenhouse for 20 days (hereinafter referred to as “treated plot”).
Thereafter, the presence of disease caused by Rhizoctonia solani in the young plants which germinated from each seed was observed and disease severity was calculated according to the following calculation formula (1).
On the other hand, seeds of soybean which were not treated as above were cultivated in the same way as above (hereinafter referred to as “non-treated plot”) and the disease severity in “non-treated plot” was calculated in the same way as the above “treated plot”. On the basis of the above severity of disease in “treated plot” and “non-treated plot”, efficacy in the “treated plot” was evaluated according to the following calculation formula (2).
Calculation formula (1): Disease severity (%)=(number of infected young plants/total number of young plants)×100 […]

Compound | efficacy (%)
CC1CC(C)(C)c2cccc(NC(=O)c3cn(C)nc3C(F)F)c21 (centres unmarked) [carboxamide compound (1)] | 42.1
Cc1nn(C)c(C)c1C(=O)Nc1cccc2c1C(C)CC2(C)C (centres unmarked) [carboxamide compound (5)] | 21.1
